target: T1, human DGAT1 (Homo sapiens, UniProt O75907); test: Human Enzyme Assay (DGAT1 inhibition, 14C oleoyl CoA incorporation into triolein); format: biochemical; conditions: human DGAT1 expressed in sf9 insect cell membranes; Examples 5 to 24; rounded to 2 decimal places
T1 construct: made in house; host or cells: Sf9 insect cells (baculovirus), membrane fraction
T1 sequence (O75907 1-488): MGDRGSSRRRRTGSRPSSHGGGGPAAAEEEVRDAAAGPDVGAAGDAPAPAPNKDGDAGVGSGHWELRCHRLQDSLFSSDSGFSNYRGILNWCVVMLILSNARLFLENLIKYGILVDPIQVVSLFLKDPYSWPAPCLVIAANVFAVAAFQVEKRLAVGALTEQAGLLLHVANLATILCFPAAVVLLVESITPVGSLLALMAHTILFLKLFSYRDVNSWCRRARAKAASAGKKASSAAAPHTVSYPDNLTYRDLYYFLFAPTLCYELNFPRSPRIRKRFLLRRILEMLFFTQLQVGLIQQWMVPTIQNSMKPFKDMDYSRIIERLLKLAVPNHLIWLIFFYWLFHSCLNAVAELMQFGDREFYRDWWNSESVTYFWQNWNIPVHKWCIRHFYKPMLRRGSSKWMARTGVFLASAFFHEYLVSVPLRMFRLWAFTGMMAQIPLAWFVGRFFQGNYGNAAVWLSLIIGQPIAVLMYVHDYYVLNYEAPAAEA
Method: Briefly, sf9 cells were infected with recombinant baculovirus containing human DGAT1 coding sequences and harvested after 48 h. Cells were lysed by sonication and membranes isolated by centrifuging at 28000 rpm for 1 h at 4° C. on a 41% sucrose gradient. The membrane fraction at the interphase was collected, washed, and stored in liquid nitrogen.
The reaction was started by adding ^14C oleoyl coenzyme A (30 μM final concentration) and incubated at room temperature for 30 minutes. The reaction was stopped by adding 200 μl 2-propanol:heptane 7:1. Radioactive triolein product was separated into the organic phase by adding 300 μl heptane and 100 μl 0.1 M carbonate buffer pH 9.5. DGAT1 activity was quantified by counting aliquots of the upper heptane layer by liquid scintillography.

Row | SMILES | IC50 [nM]
1 | Cc1ccc(Cl)cc1-c1ccc(N2CCOc3ncnc(N)c3C2=O)cc1 [Example 8, 4-amino-6-(5′-chloro-2′-methylbiphenyl-4-yl)-7,8-dihydropyrimido[5,4-f][1,4]oxazepin-5(6H)-one] | 70
2 | Nc1ncnc2c1C(=O)N(c1ccc(-c3ccc(S(N)(=O)=O)cc3Cl)cc1)CCO2 [Example 18, 4′-(4-Amino-5-oxo-7,8-dihydropyrimido[5,4-f][1,4]oxazepin-6(5H)-yl)-2-chlorobiphenyl-4-sulfonamide] | 40
3 | N#Cc1cc(Cl)ccc1-c1ccc(N2CCOc3ncnc(N)c3C2=O)cc1 [Example 22, 4′-(4-Amino-5-oxo-7,8-dihydropyrimido[5,4-f][1,4]oxazepin-6(5H)-yl)-4-chlorobiphenyl-2-carbonitrile] | 50
4 | Cc1cc(Cl)ccc1-c1ccc(N2CCOc3ncnc(N)c3C2=O)cc1 [Example 7, 4-amino-6-(4′-chloro-2′-methylbiphenyl-4-yl)-7,8-dihydropyrimido[5,4-f][1,4]oxazepin-5(6H)-one] | 80
5 | N#Cc1ccc(Cl)cc1-c1ccc(N2CCOc3ncnc(N)c3C2=O)cc1 [Example 14, 4′-(4-amino-5-oxo-7,8-dihydropyrimido[5,4-f][1,4]oxazepin-6(5H)-yl)-5-chlorobiphenyl-2-carbonitrile] | 100
6 | N#Cc1c(Cl)cccc1-c1ccc(N2CCOc3ncnc(N)c3C2=O)cc1 [Example 15, 4′-(4-amino-5-oxo-7,8-dihydropyrimido[5,4-f][1,4]oxazepin-6(5H)-yl)-3-chlorobiphenyl-2-carbonitrile] | 240
7 | Cc1c(Cl)cccc1-c1ccc(N2CCOc3ncnc(N)c3C2=O)cc1 [Example 6, 4-amino-6-(3′-chloro-2′-methylbiphenyl-4-yl)-7,8-dihydropyrimido[5,4-f][1,4]oxazepin-5(6H)-one] | 400

same assay, conditions: human DGAT1 expressed in sf9 insect cell membranes; Examples 25 to 59; rounded to 2 decimal places

Row | SMILES | IC50 [nM]
8 | Nc1ncnc2c1C(=O)N(c1ccc(-c3cc(F)c(F)cc3F)cc1)CCO2 [Example 28, 4-Amino-6-(2′,4′,5′-trifluorobiphenyl-4-yl)-7,8-dihydropyrimido[5,4-f][1,4]oxazepin-5(6H)-one] | 130
9 | Nc1ncnc2c1C(=O)N(c1ccc(-c3cccc(F)c3F)cc1)CCO2 [Example 25, 4-Amino-6-(2′,3′-difluorobiphenyl-4-yl)-7,8-dihydropyrimido[5,4-f][1,4]oxazepin-5(6H)-one] | 320
10 | C[C@@H]1CN(c2ccc(-c3c(F)cccc3F)cc2)C(=O)c2c(N)ncnc2O1 [Example 49, (R)-4-amino-6-(2′,6′-difluorobiphenyl-4-yl)-8-methyl-7,8-dihydropyrimido[5,4-f][1,4]oxazepin-5(6H)-one] | 20
11 | C[C@@H]1CN(c2ccc(-c3ccc(CS(C)(=O)=O)cc3Cl)cc2)C(=O)c2c(N)ncnc2O1 [Example 48, (R)-4-Amino-6-(2′-chloro-4′-(methylsulfonylmethyl)biphenyl-4-yl)-8-methyl-7,8-dihydropyrimido[5,4-f][1,4]oxazepin-5(6H)-one] | 60
12 | C[C@@H]1CN(c2ccc(-c3ccccc3Cl)c(C#N)c2)C(=O)c2c(N)ncnc2O1 [Example 59, (R)-4-(4-Amino-8-methyl-5-oxo-7,8-dihydropyrimido[5,4-f][1,4]oxazepin-6(5H)-yl)-2′-chlorobiphenyl-2-carbonitrile] | 20
13 | C[C@@H]1CN(c2ccc(-c3ccc(CN(C)S(C)(=O)=O)cc3Cl)cc2)C(=O)c2c(N)ncnc2O1 [Example 47, (R)—N-((4′-(4-amino-8-methyl-5-oxo-7,8-dihydropyrimido[5,4-f][1,4]oxazepin-6(5H)-yl)-2-chlorobiphenyl-4-yl)methyl)-N-methylmethanesulfonamide] | 50
14 | C[C@@H]1CN(c2ccc(-c3ccc(F)cc3F)c(F)c2)C(=O)c2c(N)ncnc2O1 [Example 53, (R)-4-Amino-8-methyl-6-(2,2′,4′-trifluorobiphenyl-4-yl)-7,8-dihydropyrimido[5,4-f][1,4]oxazepin-5(6H)-one] | 20
15 | C[C@@H]1CN(c2ccc(-c3c(Cl)cccc3C#N)c(F)c2)C(=O)c2c(N)ncnc2O1 [Example 52, 4′-((R)-4-Amino-8-methyl-5-oxo-7,8-dihydropyrimido[5,4-f][1,4]oxazepin-6(5H)-yl)-6-chloro-2′-fluorobiphenyl-2-carbonitrile] | 70
16 | C[C@@H]1CN(c2ccc(-c3ccc(C#N)cc3Cl)c(F)c2)C(=O)c2c(N)ncnc2O1 [Example 51, (R)-4′-(4-Amino-8-methyl-5-oxo-7,8-dihydropyrimido[5,4-f][1,4]oxazepin-6(5H)-yl)-2-chloro-2′-fluorobiphenyl-4-carbonitrile] | 20
17 | C[C@@H]1CN(c2ccc(-c3c(F)cccc3F)c(F)c2)C(=O)c2c(N)ncnc2O1 [Example 57, (R)-4-amino-8-methyl-6-(2,2′,6′-trifluorobiphenyl-4-yl)-7,8-dihydropyrimido[5,4-f][1,4]oxazepin-5(6H)-one] | 20
18 | C[C@@H]1CN(c2ccc(-c3ccccc3F)cc2)C(=O)c2c(N)ncnc2O1 [Example 46, (R)-4-amino-6-(2′-fluorobiphenyl-4-yl)-8-methyl-7,8-dihydropyrimido[5,4-f][1,4]oxazepin-5(6H)-one] | 20
19 | Nc1ncnc2c1C(=O)N(c1ccc(-c3ccc(Cl)cc3F)cc1)CCO2 [Example 27, 4-Amino-6-(4′-chloro-2′-fluorobiphenyl-4-yl)-7,8-dihydropyrimido[5,4-f][1,4]oxazepin-5(6H)-one] | 40
20 | C[C@@H]1CN(c2ccc(-c3ccc(Cl)cc3C#N)c(F)c2)C(=O)c2c(N)ncnc2O1 [Example 50, (R)-4′-(4-Amino-8-methyl-5-oxo-7,8-dihydropyrimido[5,4-f][1,4]oxazepin-6(5H)-yl)-4-chloro-2′-fluorobiphenyl-2-carbonitrile] | 40
21 | Cc1nc(N)c2c(n1)OCCN(c1ccc(-c3ccccc3Cl)cc1)C2=O [Example 42, 4-Amino-6-(2′-chlorobiphenyl-4-yl)-2-methyl-7,8-dihydropyrimido[5,4-f][1,4]oxazepin-5(6H)-one] | 90
22 | C[C@@H]1CN(c2ccc(-c3ccccc3F)c(F)c2)C(=O)c2c(N)ncnc2O1 [Example 54, (R)-4-Amino-6-(2,2′-difluorobiphenyl-4-yl)-8-methyl-7,8-dihydropyrimido[5,4-f][1,4]oxazepin-5(6H)-one] | 20
23 | Nc1ncnc2c1C(=O)N(c1ccc(-c3cc(F)ccc3F)cc1)CCO2 [Example 26, 4-Amino-6-(2′,5′-difluorobiphenyl-4-yl)-7,8-dihydropyrimido[5,4-f][1,4]oxazepin-5(6H)-one] | 110
24 | Nc1ncnc2c1C(=O)N(c1ccc(-c3ccc(F)cc3F)cc1)CCO2 [Example 29, 4-Amino-6-(2′,4′-difluorobiphenyl-4-yl)-7,8-dihydropyrimido[5,4-f][1,4]oxazepin-5(6H)-one] | 60
25 | C[C@@H]1CN(c2ccc(-c3ccccc3Cl)cc2)C(=O)c2c(N)ncnc2O1 [Example 44, (R)-4-Amino-6-(2′-chlorobiphenyl-4-yl)-8-methyl-7,8-dihydropyrimido[5,4-f][1,4]oxazepin-5(6H)-one] | 20
26 | C[C@@H]1CN(c2ccc(-c3ccccc3Cl)c(F)c2)C(=O)c2c(N)ncnc2O1 [Example 55, (R)-4-Amino-6-(2′-chloro-2-fluorobiphenyl-4-yl)-8-methyl-7,8-dihydropyrimido[5,4-f][1,4]oxazepin-5(6H)-one] | 10
27 | C[C@@H]1CN(c2ccc(-c3c(F)cccc3Cl)c(F)c2)C(=O)c2c(N)ncnc2O1 [Example 56, (8R)-4-amino-6-(2′-chloro-2,6′-difluorobiphenyl-4-yl)-8-methyl-7,8-dihydropyrimido[5,4-f][1,4]oxazepin-5(6H)-one] | 10
28 | C[C@@H]1CN(c2ccc(-c3ccc(CNS(C)(=O)=O)cc3Cl)cc2)C(=O)c2c(N)ncnc2O1 [Example 45, (R)—N-((4′-(4-amino-8-methyl-5-oxo-7,8-dihydropyrimido[5,4-f][1,4]oxazepin-6(5H)-yl)-2-chlorobiphenyl-4-yl)methyl)methanesulfonamide] | 60
29 | Cc1nc(N)c2c(n1)OCCN(c1ccc(-c3ccc(CNS(C)(=O)=O)cc3Cl)cc1)C2=O [Example 43, N-((4′-(4-amino-2-methyl-5-oxo-7,8-dihydropyrimido[5,4-f][1,4]oxazepin-6(5H)-yl)-2-chlorobiphenyl-4-yl)methyl)methanesulfonamide] | 100

same assay, conditions: human DGAT1 expressed in sf9 insect cell membranes; usually mean of 2 measurements

Row | SMILES | IC50 [nM]
30 | Nc1ncnc2c1C(=O)N(c1ccc(-c3ccc(S(N)(=O)=O)cc3Cl)cc1)CCO2 [Example 4, 4′-(4-Amino-5-oxo-7,8-dihydropyrimido[5,4-f][1,4]oxazepin-6(5H)-yl)-2-chlorobiphenyl-4-sulfonamide] | 35

Reference: patent publication US20110251173A1, “CHEMICAL COMPOUNDS” (AstraZeneca AB, priority 2010, published 2011)
